Measured values as given in PubChem BioAssay (NCI).
Values joined by “and” are separate entries in the source; they are usually repeats but may differ in a detail not shown here. Equal values may be shown once.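 Assay format: 96-well plates, 48-hour exposure. GI50: concentration for 50% inhibition of growth. Definition used: TGI = concentration required for complete inhibition of growth.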

How the values were obtained:
Assay in all cases: NCI anticancer screen, dose series, 48 h
SK-MEL-5 melanoma = system: SK-MEL-5 melanoma
MALME-3M melanoma = system: MALME-3M melanoma
SK-MEL-2 melanoma = system: SK-MEL-2 melanoma
SNB-78 CNS = system: SNB-78 CNS
A549 NSCLC = system: A549 NSCLC
IGROV1 ovarian = system: IGROV1 ovarian
DMS 273 small cell lung = system: DMS 273 small cell lung
ACHN renal = system: ACHN renal
M14 melanoma = system: M14 melanoma
HOP-62 NSCLC = system: HOP-62 NSCLC

Row | SMILES | TGI (SK-MEL-5 melanoma) | TGI (MALME-3M melanoma) | TGI (SK-MEL-2 melanoma) | TGI (SNB-78 CNS) [µM] | TGI (A549 NSCLC) | TGI (IGROV1 ovarian) | TGI (DMS 273 small cell lung) [µM] | TGI (ACHN renal) [µM] | GI50 (SK-MEL-5 melanoma) | GI50 (M14 melanoma) | TGI (M14 melanoma) | GI50 (MALME-3M melanoma) | GI50 (SK-MEL-2 melanoma) | GI50 (A549 NSCLC) | GI50 (IGROV1 ovarian) | GI50 (ACHN renal) | GI50 (HOP-62 NSCLC) | TGI (HOP-62 NSCLC)
1 | CC1=C(SC#N)S(=O)(=O)N(c2ccccc2)C(C)=C1SC#N | > 100 µM | > 100 µM | > 100 µM | > 100 | > 100 µM | > 100 µM | > 100 | > 100 | – | – | – | – | – | – | – | – | – | –
2 | CC(C)N(Cc1ccc(CN(C(=O)CCl)C(C)C)cc1)C(=O)CCl | 1.81 µM | 0.453 µM | 5.88 µM | – | 7.37 µM | 2.55 µM | – | 3.74 | 0.451 µM | 1.86 µM | 7.12 µM | 0.186 µM | 2.36 µM | 2.57 µM | 0.629 µM | 1.88 µM | 0.856 µM | 2.37 µM
3 | Cc1ccc([N+](=O)[O-])c2c(NCCNC(=O)c3cc(C(=O)NCCNc4ccnc5c(C)ccc([N+](=O)[O-])c45)n(C)n3)ccnc12 | 58 µM | > 73.2 µM | > 100 µM | – | > 68.8 µM | > 100 µM | – | > 100 | – | – | > 100 µM | – | – | – | – | – | – | > 71.2 µM
4 | O=C(O)/C(Cc1ccnc2ccccc12)=N\O | > 100 µM | > 100 µM | > 100 µM | – | > 100 µM | > 100 µM | – | > 100 | – | – | > 100 µM | – | – | – | – | – | – | > 100 µM
5 | O=C(O)/C(Cc1cn[nH]n1)=N\O | > 100 µM | > 100 µM | > 100 µM | – | > 100 µM | > 100 µM | – | > 100 | – | – | > 100 µM | – | – | – | – | – | – | > 100 µM
6 | COc1ccc(C(=O)c2cc(C)c(OC)c(C)c2)c(OC)c1NC(C)=O | 7.15 µM | > 100 µM | > 100 µM | – | > 100 µM | > 100 µM | – | > 100 | 0.364 µM | 0.15 µM | > 100 µM | 1.17 µM | > 100 µM | 0.389 µM | 0.529 µM | 0.0944 µM | 0.239 µM | > 100 µM
7 | CNCCCNc1nc2ccccc2c2c(=O)c3cc(OC)ccc3sc12 | 3.13 µM | 3.15 µM | 4.44 µM | – | 3.82 µM | 3.03 µM | – | 3 | 1.72 µM | 1.99 µM | 3.82 µM | 1.67 µM | 2.04 µM | 1.84 µM | 1.55 µM | 1.64 µM | 1.76 µM | 3.76 µM
8 | COc1ccc(-c2cc3c(C)nc(N)nc3n(C3CCC(OCCO)CC3)c2=O)cn1 (centres undefined) | 0.543 µM and 0.65 µM | 0.263 µM and 0.134 µM | 0.549 µM and 0.392 µM | – | 0.959 µM and 0.489 µM | 0.0983 µM and 0.092 µM | – | > 6.33 | 0.144 µM and 0.103 µM | 0.099 µM and 0.0686 µM | 2.69 µM and 1.05 µM | 0.035 µM and 0.0195 µM | 0.124 µM and 0.0674 µM | 0.123 µM and 0.109 µM | 0.021 µM and 0.0199 µM | 0.0971 µM and 0.0973 µM | 0.0997 µM and 0.113 µM | 2.11 µM and 1.93 µM
9 | Nc1nc2c(C(=O)NCc3cccs3)nnn2c2cccc(Cl)c12 | > 100 µM | > 100 µM | > 100 µM | – | > 100 µM | > 100 µM | – | > 100 | – | – | > 100 µM | – | – | – | – | – | – | > 100 µM
10 | CN1Cc2ccccc2/C=C\c2ccccc21 | > 100 µM | > 100 µM | 80.2 µM | – | > 100 µM | > 100 µM | – | > 100 | – | – | > 100 µM | – | – | – | – | – | – | > 100 µM
11 | O=[N+]([O-])c1ccc(Cl)c(CNc2ncnc3c2ncn3C2CCCCO2)c1 (centres undefined) | 52.3 µM | > 100 µM | > 100 µM | – | > 100 µM | > 100 µM | – | > 100 | – | – | > 100 µM | – | – | – | – | – | – | > 100 µM
12 | CN=C1C=CC(=C(c2ccc(N(C)C)cc2)c2ccc(N(C)C)cc2)C=C1 | 0.364 µM | 1.95 µM | 0.462 µM | – | 1.38 µM | 6.38 µM | – | 1.33 | 0.182 µM | 0.28 µM | 1.08 µM | 0.406 µM | 0.202 µM | 0.048 µM | 0.42 µM | 0.326 µM | 0.0765 µM | 1.48 µM
13 | Cc1c(C#N)cccc1[C@@H](C)Nc1nnc(C)c2cnc(N3CCOCC3)cc12 | 21.9 µM | 58.5 µM | 64.6 µM | – | > 100 µM | > 100 µM | – | > 100 | 10.1 µM | 27 µM | 90.4 µM | 21.4 µM | 21.1 µM | 36.2 µM | 24 µM | 21.4 µM | 43.4 µM | > 100 µM
14 | N#CC1=C(N)Oc2c(ccc3ccccc23)C1c1cc(=O)oc2ccc(Cl)cc12 (centres undefined) | 14.4 µM | 67.8 µM | 44.7 µM | – | > 100 µM | > 100 µM | – | 73.4 | 0.484 µM | 0.441 µM | > 100 µM | 18.1 µM | 0.972 µM | 1.38 µM | 0.873 µM | 1.99 µM | 0.672 µM | > 100 µM
15 | COc1cc(OC)cc(C2C3=C(COC3=O)Nc3cc(OC)ccc32)c1 (centres undefined) | 0.0178 µM | > 100 µM | > 100 µM | – | 27.7 µM | > 94.5 µM | – | 33.9 | < 0.01 µM | < 0.01 µM | 0.0111 µM | 13.5 µM | 0.335 µM | < 0.01 µM | < 0.01 µM | < 0.01 µM | < 0.01 µM | 21.7 µM
16 | COC1=CC(C2c3cc4c(cc3[C@@H](Nc3ccc(F)cc3)C3COC(=O)[C@H]23)OCO4)=CC(=O)C1=O (some centres undefined) | > 43.5 µM | 36.6 µM | – | > 96.4 | 20.4 µM | 44 µM | 16.3 | 23.4 | – | – | 36.3 µM | – | – | – | – | – | – | 5.9 µM
17 | O=C(O)CCNS(=O)(=O)c1ccc2ccccc2c1 | > 100 µM | > 100 µM | > 100 µM | – | > 100 µM | > 100 µM | > 100 | > 100 | – | – | > 100 µM | – | – | – | – | – | – | –
18 | C=C1C(O)C2CC(C)(CO)C(=O)C2=C(CC(C)C)C12CC2 (centres undefined) | > 100 µM | > 100 µM | > 100 µM | – | > 100 µM | > 100 µM | – | > 100 | 82.8 µM | 92.7 µM | > 100 µM | 28.3 µM | > 100 µM | 59.8 µM | > 100 µM | 93.8 µM | > 100 µM | > 100 µM
19 | CCC(C)CC(C)CC(C)/C=C(\C)C1=C(C)CC(C)(O)O1 (centres undefined) | > 100 µM | – | – | > 100 | > 100 µM | > 100 µM | > 100 | > 100 | – | – | > 100 µM | – | – | – | – | – | – | –
